From ChEMBL document CHEMBL5370530, “Discovery of 2,5-diaminopyrimidine derivatives as the first series of selective monomeric degraders of B-lymphoid tyrosine kinase” (Eur J Med Chem, 2023) come the findings set out here.

Calls of active or inactive are those of the source. No cut-off for these calls is given here.

The subject of experiment [1] is SUD4. The experiment is described as follows: Growth inhibition of human SU-DHL-4 cells measured after 72 hrs by cell titer glo luminescent cell viability assay. The experiment is classed as functional. On the technique in general: Cellular ATP, detected with luciferase, serves as a proxy for viable cell number.
For experiment [2], the system named is DOHH-2. Put plainly: Growth inhibition of human DOHH-2 cells measured after 72 hrs by cell titer glo luminescent cell viability assay. The experiment is classed as functional.
In experiment [3] the test system is SU-DHL-6. Put plainly: Growth inhibition of human SU-DHL-6 cells measured after 72 hrs by cell titer glo luminescent cell viability assay. The experiment is classed as functional.
Experiment [4] relates to Ramos. Put plainly: (§1) Downregulation of BLK level in human Ramos cells at 0.3 uM measured after 12 hrs by Western blot analysis. The experiment is classed as functional. On the technique in general: A western blot detects proteins with antibodies after separation by electrophoresis.
For experiment [5], the target named is Tyrosine-protein kinase BTK (Homo sapiens, UniProt Q06187). The experiment is described as follows: Inhibition of full length N-terminal GST tagged BTK (2 to 659 end residues) (unknown origin) expressed in Sf21insect cells by time resolved fluorescence based assay. Also noted: species or system Sf21.
A short description of experiment [6]: as §1. The experiment is classed as functional.
In experiment [7] the target is Tyrosine-protein kinase Lck (Homo sapiens) (UniProt P06239). The experiment is described as follows: Induction of degradation of LCK in human Jurkat cells assessed as maximum degradation at > 1 uM incubated for 12 hrs by Western blot analysis relative to control. The experiment is classed as cell-based.
For experiment [8], the target named is Tyrosine-protein kinase SYK (Homo sapiens, UniProt P43405). Put plainly: Inhibition of SYK phosphorylation in human Ramos cells incubated for 1 hr. The experiment is classed as cell-based.
Experiment [9] relates to A-431. Put plainly: Antiproliferative activity against human A-431 cells at 0.1 to 0.3 uM measured after 72 hrs by cell titer glo luminescent cell viability assay. To be noted: dose 0.1-0.3 µM. The experiment is classed as functional, cell-based.
Experiment [10] concerns Ramos. The experiment is described as follows: Antiproliferative activity against human Ramos cells at 0.1 to 0.3 uM measured after 72 hrs by cell titer glo luminescent cell viability assay. As to conditions: dose 0.1-0.3 µM. The experiment is classed as functional, cell-based.
The test system of experiment [11] is SU-DHL-6. The experiment is described as follows: Antiproliferative activity against human SU-DHL-6 cells at 0.1 to 0.3 uM measured after 72 hrs by cell titer glo luminescent cell viability assay. The experiment is classed as functional, cell-based. To be noted: dose 0.1-0.3 µM.
Experiment [12] has as its system Raji. The experiment is described as follows: Antiproliferative activity against human Raji cells at 0.1 to 0.3 uM measured after 72 hrs by cell titer glo luminescent cell viability assay. The experiment is classed as functional, cell-based. To be noted: dose 0.1-0.3 µM.
Experiment [13] relates to CCRF-CEM. Put plainly: Antiproliferative activity against human CCRF-CEM cells at 0.1 to 0.3 uM measured after 72 hrs by cell titer glo luminescent cell viability assay. The experiment is classed as functional, cell-based. To be noted: dose 0.1-0.3 µM.
Experiment [14] concerns RPMI-8226. The experiment is described as follows: Antiproliferative activity against human RPMI-8226 cells at 0.1 to 0.3 uM measured after 72 hrs by cell titer glo luminescent cell viability assay. To be noted: dose 0.1-0.3 µM. The experiment is classed as functional, cell-based.
The test system of experiment [15] is Jurkat. The experiment is described as follows: Antiproliferative activity against human Jurkat cells at 0.1 to 0.3 uM measured after 72 hrs by cell titer glo luminescent cell viability assay. The experiment is classed as functional, cell-based. As to conditions: dose 0.1-0.3 µM.
The test system of experiment [16] is A549. Put plainly: Antiproliferative activity against human A549 cells at 0.1 to 0.3 uM measured after 72 hrs by cell titer glo luminescent cell viability assay. To be noted: dose 0.1-0.3 µM. The experiment is classed as functional, cell-based.
The subject of experiment [17] is DOHH-2. Put plainly: Antiproliferative activity against human DOHH-2 cells at 0.1 to 0.3 uM measured after 72 hrs by cell titer glo luminescent cell viability assay. The experiment is classed as functional, cell-based. As to conditions: dose 0.1-0.3 µM.
Experiment [18] has as its system PC-9. Put plainly: Antiproliferative activity against human PC-9 cells at 0.1 to 0.3 uM measured after 72 hrs by cell titer glo luminescent cell viability assay. The experiment is classed as functional, cell-based. To be noted: dose 0.1-0.3 µM.
For experiment [19], the system named is SU-DHL-6. Put plainly: Downregulation of CDK2 level in human SU-DHL-6 cells at 1 uM measured after 48 hrs by Western blot analysis. The experiment is classed as functional, cell-based.
For experiment [20], the system named is TMD8. Put plainly: Antiproliferative activity against human TMD8 cells at 0.1 to 0.3 uM measured after 72 hrs by cell titer glo luminescent cell viability assay. The experiment is classed as functional, cell-based. To be noted: dose 0.1-0.3 µM.
For experiment [21], the system named is Pfeiffer. Put plainly: Antiproliferative activity against human Pfeiffer cells at 0.1 to 0.3 uM measured after 72 hrs by cell titer glo luminescent cell viability assay. The experiment is classed as functional, cell-based. To be noted: dose 0.1-0.3 µM.
For experiment [22], the system named is 6T-CEM. The experiment is described as follows: Antiproliferative activity against human 6T-CEM cells at 0.1 to 0.3 uM measured after 72 hrs by cell titer glo luminescent cell viability assay. The experiment is classed as functional, cell-based. To be noted: dose 0.1-0.3 µM.
Experiment [23] relates to SUD4. The experiment is described as follows: Antiproliferative activity against human SU-DHL-4 cells at 0.1 to 0.3 uM measured after 72 hrs by cell titer glo luminescent cell viability assay. The experiment is classed as functional, cell-based. To be noted: dose 0.1-0.3 µM.
For experiment [24], the system named is NAMALVA. The experiment is described as follows: Antiproliferative activity against human NAMALVA cells at 0.1 to 0.3 uM measured after 72 hrs by cell titer glo luminescent cell viability assay. The experiment is classed as functional, cell-based. To be noted: dose 0.1-0.3 µM.
Experiment [25] has as its system A-375. Put plainly: Antiproliferative activity against human A-375 cells at 0.1 to 0.3 uM measured after 72 hrs by cell titer glo luminescent cell viability assay. As to conditions: dose 0.1-0.3 µM. The experiment is classed as functional, cell-based.
For experiment [26], the system named is RS4-11. The experiment is described as follows: Antiproliferative activity against human RS4-11 cells at 0.1 to 0.3 uM measured after 72 hrs by cell titer glo luminescent cell viability assay. The experiment is classed as functional, cell-based. As to conditions: dose 0.1-0.3 µM.
Experiment [27] deals with OCI-Ly7. The experiment is described as follows: Antiproliferative activity against human OCILY7 cells at 0.1 to 0.3 uM measured after 72 hrs by cell titer glo luminescent cell viability assay. The experiment is classed as functional, cell-based. To be noted: dose 0.1-0.3 µM.
The subject of experiment [28] is OPM-2. Put plainly: Antiproliferative activity against human OPM-2 cells at 0.1 to 0.3 uM measured after 72 hrs by cell titer glo luminescent cell viability assay. The experiment is classed as functional, cell-based. To be noted: dose 0.1-0.3 µM.
In experiment [29] the test system is MOLT-4. Put plainly: Antiproliferative activity against human MOLT-4 cells at 0.1 to 0.3 uM measured after 72 hrs by cell titer glo luminescent cell viability assay. The experiment is classed as functional, cell-based. To be noted: dose 0.1-0.3 µM.
Experiment [30] deals with HBL1. Put plainly: Antiproliferative activity against human HBL1 cells at 0.1 to 0.3 uM measured after 72 hrs by cell titer glo luminescent cell viability assay. The experiment is classed as functional, cell-based. To be noted: dose 0.1-0.3 µM.
For experiment [31], the system named is DOHH-2. The experiment is described as follows: Downregulation of CDK2 level in human DOHH-2 cells at 1 uM measured after 48 hrs by Western blot analysis. The experiment is classed as functional, cell-based.

Sequence of Tyrosine-protein kinase BTK (Q06187 whole entry): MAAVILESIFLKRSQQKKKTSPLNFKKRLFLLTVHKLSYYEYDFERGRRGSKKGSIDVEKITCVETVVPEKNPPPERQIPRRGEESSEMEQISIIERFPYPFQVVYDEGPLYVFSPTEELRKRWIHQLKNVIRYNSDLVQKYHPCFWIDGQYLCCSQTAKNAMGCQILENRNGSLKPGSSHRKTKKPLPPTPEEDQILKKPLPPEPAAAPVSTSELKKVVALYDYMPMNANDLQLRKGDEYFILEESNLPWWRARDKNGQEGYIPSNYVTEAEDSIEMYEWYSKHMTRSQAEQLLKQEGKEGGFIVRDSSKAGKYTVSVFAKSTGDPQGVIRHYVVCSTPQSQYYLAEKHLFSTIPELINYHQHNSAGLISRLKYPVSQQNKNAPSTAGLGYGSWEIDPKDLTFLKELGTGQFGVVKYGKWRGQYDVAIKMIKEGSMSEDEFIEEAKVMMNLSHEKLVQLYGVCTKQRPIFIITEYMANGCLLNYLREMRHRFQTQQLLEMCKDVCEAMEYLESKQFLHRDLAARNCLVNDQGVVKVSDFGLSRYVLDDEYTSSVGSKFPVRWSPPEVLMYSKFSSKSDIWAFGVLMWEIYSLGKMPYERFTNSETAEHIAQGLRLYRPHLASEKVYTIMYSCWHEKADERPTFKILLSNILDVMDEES
Sequence of Tyrosine-protein kinase Lck (Homo sapiens) (P06239 2-509 limits assumed): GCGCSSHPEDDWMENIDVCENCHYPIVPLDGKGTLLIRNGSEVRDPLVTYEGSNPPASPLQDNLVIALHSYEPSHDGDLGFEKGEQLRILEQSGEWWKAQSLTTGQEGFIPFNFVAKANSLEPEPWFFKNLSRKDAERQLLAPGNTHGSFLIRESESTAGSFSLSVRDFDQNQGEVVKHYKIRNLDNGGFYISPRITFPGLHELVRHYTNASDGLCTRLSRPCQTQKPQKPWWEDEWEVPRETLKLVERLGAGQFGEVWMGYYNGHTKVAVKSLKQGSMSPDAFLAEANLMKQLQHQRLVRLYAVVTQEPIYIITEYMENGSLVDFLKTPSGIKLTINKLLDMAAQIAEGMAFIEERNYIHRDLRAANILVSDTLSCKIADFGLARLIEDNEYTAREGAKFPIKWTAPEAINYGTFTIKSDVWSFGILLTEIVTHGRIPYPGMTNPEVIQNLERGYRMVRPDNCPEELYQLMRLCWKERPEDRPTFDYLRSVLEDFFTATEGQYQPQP

A word on the GI50: it is the concentration giving 50% growth inhibition. In the case of `Cc1ccc(-c2nn(C(C)(C)C)c3ncnc(N)c23)cc1`, the concentration for 50% growth inhibition (GI50) in experiment [1] is above 10000 nM; in [2] it was 3700 nM; in experiment [3], 4700 nM. The result in experiment [4] was inactive.
By IC50 is commonly meant the midpoint of a concentration-inhibition curve. A lower IC50 goes with inhibition by little substance. `Cc1ccc(NC(=O)CC23C[C@H]4C[C@@H](C2)C[C@@H](C3)C4)cc1C(=O)Nc1cnc(Nc2cccc(N)c2)nc1` returned an IC50 in experiment [5] of 338 nM.
Consider `Cc1ccc(NC(=O)c2ccc3cnccc3c2)cc1C(=O)Nc1cnc(Nc2cccc(C3CCN(C(=O)/C=C/CN(C)C)CC3)c2)nc1`, for which, in [4], the result was Active.
Turning to `C=CC(=O)NCCC(=O)c1cccc(Nc2ncc(NC(=O)c3cc(NC(=O)c4cccc(-c5ccc(F)cc5)c4)ccc3C)cn2)c1`, the Activity in experiment [6] is above 85%.
For `Cc1nc(Nc2ncc(C(=O)Nc3c(C)cccc3Cl)s2)cc(N2CCN(CCO)CC2)n1`, the result in experiment [4] was Active.
In turn, `Cc1ccc(NC(=O)C[C@@]23C[C@@H]4C[C@@H](C[C@@](O)(C4)C2)C3)cc1C(=O)Nc1cnc(Nc2cccc(N)c2)nc1` displayed an IC50 in [5] of 855 nM.
One may read the Emax as the greatest response seen or fitted, relative to the assay's reference. As to `Cc1ccc(NC(=O)c2ccc(Oc3ccccc3)cc2)cc1C(=O)Nc1cnc(Nc2cccc(N)c2)nc1`, the IC50 turned out to be 991 nM in experiment [5] and 2730 nM in experiment [8]. For the same compound, the maximal effect (Emax) in experiment [7] was below 50%.
Turning to `CN1CCN(CCOc2cc(OC3CCOCC3)c3c(Nc4c(Cl)ccc5c4OCO5)ncnc3c2)CC1`, the result in experiment [4] was Active.
Compound `Cc1ccc(NC(=O)c2ccc3ccccc3c2)cc1C(=O)Nc1cnc(Nc2cccc(N)c2)nc1` returned a 50% inhibitory concentration (IC50) in experiment [8] below 100 nM.
For the compound `C=CC(=O)N1CCC[C@@H](n2nc(-c3ccc(Oc4ccccc4)cc3)c3c(N)ncnc32)C1`, the result in experiment [4] was inactive.
As for `C=CC(=O)N1CCC(c2cccc(Nc3ncc(NC(=O)c4cc(NC(=O)c5ccc6cnccc6c5)ccc4C)cn3)c2)CC1`, in experiment [4], the result was Active.
For the compound `Cc1ccc(NC(=O)c2ccc(-c3cccc(C(F)(F)F)c3)cc2)cc1C(=O)Nc1cnc(Nc2cccc(N)c2)nc1`, the half-inhibitory concentration (IC50) turned out to be 2560 nM in experiment [5] and 2900 nM in [8]. Also, the result in experiment [9], in [10], in experiment [12], in experiment [13], in experiment [14] and in [15] was inactive. Moreover, the outcome in experiment [16], in experiment [18], in [20], in experiment [22], in experiment [24] and in [25] was inactive. The result in [26], in [27], in experiment [28], in [29] and in [30] was inactive. The result in experiment [11], in experiment [17], in [19], in experiment [21], in experiment [23] and in experiment [31] was Active. Moreover, the GI50 in [1] is 180 nM; in experiment [2], 130 nM; in experiment [3], 360 nM. Moreover, the Emax in experiment [7] is below 50%.
In turn, `CCC(=O)Nc1cccc(Nc2ncc(NC(=O)c3cc(NC(=O)c4cccc(C(F)(F)F)c4)ccc3C)cn2)c1` gave a half-inhibitory concentration (IC50) in experiment [8] below 100 nM. The compound also returned an Activity in experiment [6] above 85%.
Take `C=CC(=O)Nc1cccc(Nc2nc(Nc3ccc(OCCOC)cc3)ncc2F)c1`: the result in experiment [4] was Active.
`Cc1ccc(NC(=O)Cc2ccc(-c3ccccc3)cc2)cc1C(=O)Nc1cnc(Nc2cccc(N)c2)nc1`: in [5], half-maximal inhibition (IC50) was put at 5810 nM. Also, the GI50 in [1] was found to be 8900 nM; in experiment [2] it was 2500 nM; in experiment [3], 6200 nM. Also, in experiment [7], the maximum response (Emax) is below 50%.
